Laboratory results published in patent publication US12059425B2, “Heterocyclic compounds and uses thereof” (Kumquat Biosciences Inc., priority 2022, dated 2024).
Like-named read-outs stand apart in the source and are kept apart here.

Columns and labels:
GP2D cells = assay: Ras cellular assay, cell proliferation GP2D; format: cell-based
Method in brief: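 Growth inhibition read by CellTiter-Glo luminescence roughly 5 days after compound addition, which followed overnight plating of G12D-mutant GP2D cells (e.g., 800 per well). Compounds were tested as a serial dilution (e.g., 9 points, 3-fold), with IC50 fitted by four-parameter model.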

K-Ras G12V = target: T1, K-Ras G12V (Homo sapiens, UniProt P01116, G12V); assay: PPI-HTRF assay, K-Ras G12V / SOS1 interaction; format: biochemical
T1 construct: made in house; host or cells: E. coli, e.g. BL21 (DE3)
T1 sequence (P01116 1-188 isoform P01116-2 G12V): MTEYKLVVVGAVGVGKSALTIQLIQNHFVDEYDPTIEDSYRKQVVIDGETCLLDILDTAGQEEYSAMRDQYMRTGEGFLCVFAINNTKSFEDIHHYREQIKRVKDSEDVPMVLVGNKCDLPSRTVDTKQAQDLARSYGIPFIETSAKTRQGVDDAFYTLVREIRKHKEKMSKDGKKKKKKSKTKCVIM
Method in brief: (§1)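 Disruption of K-Ras–SOS1 binding is followed by FRET between a europium-labelled anti-GST antibody on GST-K-Ras and an XL665-labelled anti-His antibody on His-hSOS1. Protein concentrations are set in the same molar range as the IC50s measured. The 665/620 nm ratio gives IC50, with duplicates tested at 10, 2.5, 0.63, 0.16, 0.04 and 0.01 μM.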

K-Ras G12S = target: T2, K-Ras G12S (Homo sapiens, UniProt P01116, G12S); assay: PPI-HTRF assay, K-Ras G12S / SOS1 interaction; format: biochemical
T2 construct: made in house; host or cells: E. coli, e.g. BL21 (DE3)
T2 sequence (P01116 1-188 isoform P01116-2 G12S): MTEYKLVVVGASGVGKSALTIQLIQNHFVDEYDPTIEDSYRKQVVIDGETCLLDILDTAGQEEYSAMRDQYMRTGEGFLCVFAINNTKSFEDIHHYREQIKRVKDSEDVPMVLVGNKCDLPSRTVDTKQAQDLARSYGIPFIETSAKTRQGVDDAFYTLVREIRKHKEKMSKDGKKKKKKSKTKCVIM
Method in brief: as §1

A549 cells = assay: Ras cellular assay, cell proliferation A549; format: cell-based; details: Homo sapiens
Method in brief: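 G12S-mutant A549 cells (800/well) in RPMI-1640 plus 10% heat-inactivated FBS, standard or ultra-low attachment 384-well plates, dosed the day after plating with a 10-point 3-fold series. Viability by CellTiter-Glo luminescence about 6 days later; IC50 from four-parameter fit.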

K-Ras G12D = target: T3, K-Ras G12D (Homo sapiens, UniProt P01116, G12D); assay: PPI-HTRF assay, K-Ras G12D / SOS1 interaction; format: biochemical
T3 construct: made in house; host or cells: E. coli, e.g. BL21 (DE3)
T3 sequence (P01116 1-188 isoform P01116-2 G12D): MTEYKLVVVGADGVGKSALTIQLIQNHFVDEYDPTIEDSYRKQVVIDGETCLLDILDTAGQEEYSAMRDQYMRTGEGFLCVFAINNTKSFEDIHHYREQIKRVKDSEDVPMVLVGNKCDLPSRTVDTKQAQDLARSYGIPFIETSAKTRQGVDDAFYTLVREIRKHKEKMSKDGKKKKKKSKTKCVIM
Method in brief: as §1

SW620 cells = assay: Ras cellular assay, cell proliferation SW620; format: cell-based; details: Homo sapiens, SW-620
Text: For example, this assay can be also used to assess selective growth inhibition of a mutant Ras protein relative to a wildtype, or relative to a different mutant Ras protein.

wildtype K-Ras = target: T4, wildtype K-Ras (Homo sapiens, UniProt P01116); assay: PPI-HTRF assay, wildtype K-Ras / SOS1 interaction; format: biochemical
T4 construct: made in house; host or cells: E. coli, e.g. BL21 (DE3)
T4 sequence (P01116 1-188 isoform P01116-2): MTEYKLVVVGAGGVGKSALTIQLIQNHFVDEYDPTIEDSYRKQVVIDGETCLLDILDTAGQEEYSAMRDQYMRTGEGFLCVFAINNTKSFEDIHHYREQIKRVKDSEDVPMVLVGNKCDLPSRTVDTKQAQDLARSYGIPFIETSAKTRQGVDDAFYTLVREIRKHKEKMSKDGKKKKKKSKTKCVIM
Method in brief: as §1

[1] = HTRF, K-Ras G12V, read-out: PPI-HTRF-5 nM (K-Ras G12V IC50)
[2] = read-out: PPI-HTRF-5 nM (K-Ras G12S IC50)
[3] = HTRF, K-Ras G12D, read-out: PPI-HTRF-5 nM (K-Ras G12D IC50)
[4] = HTRF, K-Ras wt, read-out: PPI-HTRF-5 nM (K-Ras wt IC50)

IC50 (K-Ras G12V; [1]) [µM]	IC50 (K-Ras G12S; [2]) [µM]	IC50 (A549 cells) [µM]	IC50 (K-Ras G12D; [3]) [µM]	IC50 (SW620 cells) [µM]	IC50 (wildtype K-Ras; [4]) [µM]	SMILES	IC50 (GP2D cells) [µM]	IC50 (K-Ras G12V) [µM]	IC50 (K-Ras G12S; PPI-HTRF-5 nM (K-Ras G12S IC50)) [µM]	IC50 (K-Ras G12D) [µM]	IC50 (wildtype K-Ras) [µM]
< 5	< 5	< 5	< 5	< 5	< 5	N#Cc1c(N)sc2c(F)ccc(-c3c(Cl)c4c5c(nc(OC[C@@]67CCCN6C[C@H](F)C7)nc5c3F)N3CC(F)(F)C[C@@H]3CO4)c12 [compound 176, 2-amino-4-((8aR)-6-chloro-4,10,10-trifluoro-2-(((2R,7aS)-2-fluorotetrahydro-1H-pyrrolizin-7a(5H)-yl)methoxy)-8a,9,10,11-tetrahydro-8H-pyrrolo[2′,1′:3,4][1,4]oxazepino[5,6,7-de]quinazolin-5-yl)-7-fluorobenzo[b]thiophene-3-carbonitrile]	< 5				
< 5	< 5	< 5	< 5	< 5	< 5	N#Cc1c(N)sc2c(F)ccc(-c3c(Cl)c4c5c(nc(OC[C@@]67CCCN6C[C@H](F)C7)nc5c3F)N3C(CCC3COC(F)F)CO4)c12 (stereo partly drawn) [compound 161, 2-amino-4-(6-chloro-11-((difluoromethoxy)methyl)-4-fluoro-2-(((2R,7aS)-2-fluorotetrahydro-1H-pyrrolizin-7a(5H)-yl)methoxy)-8a,9,10,11-tetrahydro-8H-pyrrolo[2′,1′:3,4][1,4]oxazepino[5,6,7-de]quinazolin-5-yl)-7-fluorobenzo[b]thiophene-3-carbonitrile]	< 5				
< 5	< 5	< 5	< 5	< 5	< 5	N#CCC1CCC2COc3c(Cl)c(-c4ccc(F)c5sc(N)c(C#N)c45)c(F)c4nc(OC[C@@]56CCCN5C[C@H](F)C6)nc(c34)N12 (stereo partly drawn) [compound 107, 2-amino-4-(6-chloro-11-(cyanomethyl)-4-fluoro-2-(((2R,7aS)-2-fluorotetrahydro-1H-pyrrolizin-7a(5H)-yl)methoxy)-8a,9,10,11-tetrahydro-8H-pyrrolo[2′,1′:3,4][1,4]oxazepino[5,6,7-de]quinazolin-5-yl)-7-fluorobenzo[b]thiophene-3-carbonitrile]	< 5				
< 5	< 5	< 5	< 5	< 5	< 5	N#Cc1c(N)sc2c(F)ccc(-c3c(Cl)c4c5c(nc(OC[C@@]67CCCN6C[C@H](F)C7)nc5c3F)N3CCC[C@H]3CCO4)c12 [compound 115, 2-amino-4-((13aS)-10-chloro-8-fluoro-6-(((2R,7aS)-2-fluorotetrahydro-1H-pyrrolizin-7a(5H)-yl)methoxy)-1,2,3,12,13,13a-hexahydropyrrolo[1′,2′:5,6][1,5]oxazocino [4,3,2-de]quinazolin-9-yl)-7-fluorobenzo[b]thiophene-3-carbonitrile]	< 5				
< 5	< 5	< 5	< 5	< 5	< 5	N#Cc1c(N)sc2c(F)ccc(-c3c(Cl)c4c5c(nc(OC[C@@]67CCCN6C[C@H](F)C7)nc5c3F)N3CCCC3CO4)c12 (stereo partly drawn) [compound 137, 2-amino-4-(6-chloro-4-fluoro-2-(((2R,7aS)-2-fluorotetrahydro-1H-pyrrolizin-7a(5H)-yl)methoxy)-8a,9,10,11-tetrahydro-8H-pyrrolo[2′,1′:3,4][1,4]oxazepino[5,6,7-de]quinazolin-5-yl)-7-fluorobenzo[b]thiophene-3-carbonitrile]	< 5				
< 5	< 5	< 5	< 5	< 5	< 5	N#Cc1c(N)sc2c(F)ccc(-c3c(Cl)c4c5c(nc(OC[C@@]67CCCN6C[C@H](F)C7)nc5c3F)N3CCCC(O)C3CO4)c12 (stereo partly drawn) [compound 157, 2-amino-4-(6-chloro-4-fluoro-2-(((2R,7aS)-2-fluorotetrahydro-1H-pyrrolizin-7a(5H)-yl)methoxy)-9-hydroxy-8,8a,9,10,11,12-hexahydropyrido[2′,1′:3,4][1,4]oxazepino [5,6,7-de]quinazolin-5-yl)-7-fluorobenzo[b]thiophene-3-carbonitrile]	< 5				
< 5	< 5	< 5	< 5	< 5	< 5	N#Cc1c(N)sc2c(F)ccc(-c3c(Cl)c4c5c(nc(OC[C@@]67CCCN6C[C@H](F)C7)nc5c3F)N3CCC(C#N)CC3CO4)c12 (stereo partly drawn) [compound 205, 5-(2-amino-3-cyano-7-fluorobenzo[b]thiophen-4-yl)-6-chloro-4-fluoro-2-(((2R,7aS)-2-fluorotetrahydro-1H-pyrrolizin-7a(5H)-yl)methoxy)-8,8a,9,10,11,12-hexahydropyrido[2′,1′:3,4][1,4]oxazepino [5,6,7-de]quinazoline-10-carbonitrile]	< 5				
< 5	< 5	> 5	< 5	> 5	< 5	N#Cc1c(N)sc2c(F)ccc(-c3c(Cl)c4c5c(nc(OC[C@@]67CCCN6C[C@H](F)C7)nc5c3F)N(CCC3CNC3)C3COCC3CO4)c12 (stereo partly drawn) [compound 171, 2-amino-4-(12-(2-(azetidin-3-yl)ethyl)-6-chloro-4-fluoro-2-(((2R,7aS)-2-fluorotetrahydro-1H-pyrrolizin-7a(5H)-yl)methoxy)-8a,9,11a,12-tetrahydro-8H,11H-furo[3′,4′:6,7][1,5]oxazocino[4,3,2-de]quinazolin-5-yl)-7-fluorobenzo[b]thiophene-3-carbonitrile]	< 5				
< 5	< 5	< 5	< 5	< 5	< 5	N#Cc1c(N)sc2c(F)ccc(-c3c(Cl)c4c5c(nc(OC[C@@]67CCCN6C[C@H](F)C7)nc5c3F)N(CC3CC3)C3COCC3CO4)c12 (stereo partly drawn) [compound 101, 2-amino-4-(6-chloro-12-(cyclopropylmethyl)-4-fluoro-2-(((2R,7aS)-2-fluorotetrahydro-1H-pyrrolizin-7a(5H)-yl)methoxy)-8a,9,11a,12-tetrahydro-8H,11H-furo[3′,4′:6,7][1,5]oxazocino[4,3,2-de]quinazolin-5-yl)-7-fluorobenzo[b]thiophene-3-carbonitrile]	< 5				
< 5	< 5	< 5	< 5	< 5	< 5	COCC1CCC2COc3c(Cl)c(-c4ccc(F)c5sc(N)c(C#N)c45)c(F)c4nc(OC[C@@]56CCCN5C[C@H](F)C6)nc(c34)N12 (stereo partly drawn) [compound 138, 2-amino-4-(6-chloro-4-fluoro-2-(((2R,7aS)-2-fluorotetrahydro-1H-pyrrolizin-7a(5H)-yl)methoxy)-11-(methoxymethyl)-8a,9,10,11-tetrahydro-8H-pyrrolo[2′,1′:3,4][1,4]oxazepino[5,6,7-de]quinazolin-5-yl)-7-fluorobenzo[b]thiophene-3-carbonitrile]	< 5				
< 5	< 5	< 5	< 5	< 5	< 5	N#Cc1c(N)sc2c(F)ccc(-c3c(Cl)c4c5c(nc(OCC67CCCN6C[C@H](F)C7)nc5c3F)N3CCCCCC3CO4)c12 (stereo partly drawn) [compound 193, 2-amino-4-(3-chloro-1-fluoro-13-(((2R,7aS)-2-fluorotetrahydro-1H-pyrrolizin-7a(5H)-yl)methoxy)-5a,6,7,8,9,10-hexahydro-5H-azepino[2′,1′:3,4][1,4]oxazepino[5,6,7-de]quinazolin-2-yl)-7-fluorobenzo[b]thiophene-3-carbonitrile]	< 5				

SMILES	IC50 (K-Ras G12V; [1]) [µM]	IC50 (K-Ras G12S; [2]) [µM]	IC50 (A549 cells) [µM]	IC50 (K-Ras G12D; [3]) [µM]	IC50 (SW620 cells) [µM]	IC50 (wildtype K-Ras; [4]) [µM]	IC50 (GP2D cells) [µM]	IC50 (K-Ras G12V) [µM]	IC50 (K-Ras G12S; PPI-HTRF-5 nM (K-Ras G12S IC50)) [µM]	IC50 (K-Ras G12D) [µM]	IC50 (wildtype K-Ras) [µM]
CN1c2nc(OC[C@@]34CCCN3C[C@H](F)C4)nc3c(F)c(-c4ccc(F)c5sc(N)c(C#N)c45)c(Cl)c(c23)OC2CN(C(=O)C3N[C@H]3C3CC3)CC21 (stereo partly drawn) [compound 108, 2-amino-4-(6-chloro-9-((3S)-3-cyclopropylaziridine-2-carbonyl)-4-fluoro-2-(((2R,7aS)-2-fluorotetrahydro-1H-pyrrolizin-7a(5H)-yl)methoxy)-11-methyl-7a,8,9,10,10a,11-hexahydropyrrolo[3′,4′:2,3][1,4]oxazepino [5,6,7-de]quinazolin-5-yl)-7-fluorobenzo[b]thiophene-3-carbonitrile]			> 5		> 5		< 5	< 5	< 5	< 5	< 5
